# Measurements published in ChEMBL document CHEMBL1201862, “PubChem BioAssay data set” (2004).
# Active and inactive are the calls of the source.
# Legend:
# [1] = mitochondrial function rescue without frataxin homolog – Friedreich's ataxia, plus single-dose screen, dose response (AID 1465); format: functional;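 note: yeast depleted of Yfh1p frataxin homolog grown on glycerol needing respiration; WST-1 tetrazolium dye reduction as measure of cellular dehydrogenase metabolic activity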
# [2] = reduction of Shn3 3'UTR-driven luciferase in osteoblasts – cell-based, Clone20 osteoblasts, firefly luciferase, cherry-picked, dose response (AID 624132); format: functional;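 note: firefly luciferase luminescence from reporter carrying the Shn3 3'UTR in osteoblasts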
# [3] = molecular target: T1, Microphthalmia-associated transcription factor (Homo sapiens, UniProt O75030); assay: reducers of TRPM1 reporter luminescence, concentration series – cell-based, SK-MEL-5, cherry-picked, set 3, MITF inhibitor project, dose response (AID 493073); format: functional;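 note: SK-MEL-5 melanoma cells with luciferase driven by the MITF target TRPM1 promoter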
# T1 sequence (O75030 whole entry): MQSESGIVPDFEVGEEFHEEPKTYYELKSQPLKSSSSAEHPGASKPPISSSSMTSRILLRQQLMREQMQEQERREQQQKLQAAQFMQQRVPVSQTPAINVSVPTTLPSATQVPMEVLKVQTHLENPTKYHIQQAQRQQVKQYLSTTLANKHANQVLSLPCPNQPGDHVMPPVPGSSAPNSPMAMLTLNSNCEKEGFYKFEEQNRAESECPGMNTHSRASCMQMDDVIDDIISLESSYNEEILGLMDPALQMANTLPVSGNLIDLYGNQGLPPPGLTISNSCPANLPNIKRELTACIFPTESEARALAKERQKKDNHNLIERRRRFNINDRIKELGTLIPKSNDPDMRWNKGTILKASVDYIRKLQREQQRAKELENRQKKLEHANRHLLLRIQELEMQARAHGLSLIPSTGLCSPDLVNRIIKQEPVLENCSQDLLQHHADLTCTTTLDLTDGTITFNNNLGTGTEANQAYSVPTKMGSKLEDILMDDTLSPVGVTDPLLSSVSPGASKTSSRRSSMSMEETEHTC
# [4] = loss of viability in HepG2 cells – cell-based, CellTiter-Glo, cherry-picked, cytotoxicity control for Shn3 inhibitor project, dose response (AID 624134); format: functional
# [5] = Luminescence Cell-Based Dose Response HTS to Identify Inhibitors of 5'UTR Stem-Loop Driven Prion Protein mRNA Translation in H4 Neuroglioblastoma Cells. [Related pubchem assays: 1827 (Project Summary), 1813 (Primary HTS)]; format: functional
# [6] = Luminescence-based counterscreen assay for KLF5 inhibitors: dose response cell-based high throughput screening assay to identify cytotoxic compounds using the IEC-6 intestinal epithelial cell line. [Related pubchem assays: 1700 (Primary screen.), 1834 (Confirmation screen.), 1858 (Summary AID.), 1905 (Counterscreen.)]; format: functional
# [7] = luciferase reporter signal suppression in cells – H4 neuroglioma cells, luminescence, dose response (AID 1990); format: functional, cell-based
# [8] = Shn3 3'UTR reporter signal decrease – cell-based, Clone20 osteoblasts, firefly luciferase, cherry-pick, set 2, Schnurri-3 inhibitor project, dose response (AID 720490); format: functional;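 note: actives lower the luminescence signal as inhibitors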
# [9] = molecular target: T2, Estrogen receptor (Homo sapiens, UniProt P03372); assay: ERα coactivator recruitment enhancers – biochemical, TR-FRET, ERα LBD, dose response (AID 737)
# T2 sequence (P03372 whole entry): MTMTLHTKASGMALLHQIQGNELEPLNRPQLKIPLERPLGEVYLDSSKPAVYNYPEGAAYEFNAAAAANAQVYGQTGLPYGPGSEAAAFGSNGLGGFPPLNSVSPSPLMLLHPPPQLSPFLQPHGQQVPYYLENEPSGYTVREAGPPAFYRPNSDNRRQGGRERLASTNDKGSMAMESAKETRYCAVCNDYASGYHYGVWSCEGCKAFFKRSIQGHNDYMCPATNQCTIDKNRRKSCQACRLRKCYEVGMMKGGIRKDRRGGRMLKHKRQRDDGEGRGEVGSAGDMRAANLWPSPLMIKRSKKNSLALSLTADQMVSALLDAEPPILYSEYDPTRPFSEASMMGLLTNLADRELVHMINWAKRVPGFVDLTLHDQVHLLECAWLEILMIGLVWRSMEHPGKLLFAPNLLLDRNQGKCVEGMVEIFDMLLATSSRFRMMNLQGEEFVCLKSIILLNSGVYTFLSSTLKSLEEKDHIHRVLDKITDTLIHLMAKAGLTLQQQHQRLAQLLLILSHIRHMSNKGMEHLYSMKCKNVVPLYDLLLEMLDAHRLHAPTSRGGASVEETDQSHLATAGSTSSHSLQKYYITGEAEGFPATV
# [10] = viability of uninfected HEp-2 cells – cell-based, HTS, cytotoxicity control for RSV inhibitor project, dose response (AID 2410); format: functional; conditions: human respiratory syncytial virus
# [11] = molecular target: Ion channel NompC (Danio rerio, UniProt Q7T1G6); assay: Fluorescence counterscreen assay for TRPML3 agonists: dose response cell-based high-throughput screening assay to identify agonists of the transient receptor potential channel N1 (TRPN1). [Related pubchem assays: 1526, 1424, 1448 ]; format: functional
# Sequence of Ion channel NompC (Q7T1G6 whole entry): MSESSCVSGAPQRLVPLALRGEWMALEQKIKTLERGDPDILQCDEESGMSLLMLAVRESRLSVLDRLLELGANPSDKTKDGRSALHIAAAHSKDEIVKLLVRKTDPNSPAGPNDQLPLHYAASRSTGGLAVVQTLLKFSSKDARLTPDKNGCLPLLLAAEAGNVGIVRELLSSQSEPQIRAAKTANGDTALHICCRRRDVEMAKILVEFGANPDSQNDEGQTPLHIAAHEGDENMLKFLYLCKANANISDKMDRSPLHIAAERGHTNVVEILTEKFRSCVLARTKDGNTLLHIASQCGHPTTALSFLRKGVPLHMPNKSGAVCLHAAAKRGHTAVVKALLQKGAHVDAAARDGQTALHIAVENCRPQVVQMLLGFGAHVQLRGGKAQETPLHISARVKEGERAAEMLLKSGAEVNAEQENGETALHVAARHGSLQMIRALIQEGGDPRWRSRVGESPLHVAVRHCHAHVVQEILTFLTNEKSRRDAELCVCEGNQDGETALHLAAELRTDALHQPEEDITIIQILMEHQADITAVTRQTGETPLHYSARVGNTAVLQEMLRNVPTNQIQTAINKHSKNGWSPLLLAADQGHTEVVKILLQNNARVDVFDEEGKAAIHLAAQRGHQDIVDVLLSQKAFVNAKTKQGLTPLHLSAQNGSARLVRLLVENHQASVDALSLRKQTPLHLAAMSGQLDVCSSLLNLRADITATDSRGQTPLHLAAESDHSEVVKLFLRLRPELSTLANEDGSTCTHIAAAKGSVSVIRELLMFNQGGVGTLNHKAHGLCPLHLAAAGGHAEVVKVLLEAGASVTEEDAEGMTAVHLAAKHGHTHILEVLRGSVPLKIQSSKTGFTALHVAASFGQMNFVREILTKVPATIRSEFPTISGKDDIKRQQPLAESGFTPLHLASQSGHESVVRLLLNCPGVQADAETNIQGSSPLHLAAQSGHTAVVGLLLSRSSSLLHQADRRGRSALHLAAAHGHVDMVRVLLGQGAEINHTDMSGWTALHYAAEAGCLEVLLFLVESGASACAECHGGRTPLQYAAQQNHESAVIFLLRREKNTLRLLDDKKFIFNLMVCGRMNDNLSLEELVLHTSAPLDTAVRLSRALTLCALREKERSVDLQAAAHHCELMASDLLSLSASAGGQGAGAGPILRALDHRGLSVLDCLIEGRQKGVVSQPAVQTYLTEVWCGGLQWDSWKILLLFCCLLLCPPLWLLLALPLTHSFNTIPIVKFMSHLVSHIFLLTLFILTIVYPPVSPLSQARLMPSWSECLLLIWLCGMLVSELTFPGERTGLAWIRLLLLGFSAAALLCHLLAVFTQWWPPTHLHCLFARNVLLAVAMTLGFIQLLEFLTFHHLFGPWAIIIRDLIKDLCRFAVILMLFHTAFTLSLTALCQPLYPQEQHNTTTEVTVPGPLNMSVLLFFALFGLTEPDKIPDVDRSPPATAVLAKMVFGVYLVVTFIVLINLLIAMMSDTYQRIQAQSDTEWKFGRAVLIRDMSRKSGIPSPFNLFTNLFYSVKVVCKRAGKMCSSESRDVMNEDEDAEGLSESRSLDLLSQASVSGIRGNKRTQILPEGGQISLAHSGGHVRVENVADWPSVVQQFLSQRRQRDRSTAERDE
# [12] = molecular target: T3, Mucolipin-3 (Homo sapiens, UniProt Q8TDD5); assay: Dose response cell-based high-throughput screening assay for agonists of the transient receptor potential channel ML3 (TRPML3). [Related pubchem assays: 1526, 1424, 1448 ]; format: functional
# T3 sequence (Q8TDD5 whole entry): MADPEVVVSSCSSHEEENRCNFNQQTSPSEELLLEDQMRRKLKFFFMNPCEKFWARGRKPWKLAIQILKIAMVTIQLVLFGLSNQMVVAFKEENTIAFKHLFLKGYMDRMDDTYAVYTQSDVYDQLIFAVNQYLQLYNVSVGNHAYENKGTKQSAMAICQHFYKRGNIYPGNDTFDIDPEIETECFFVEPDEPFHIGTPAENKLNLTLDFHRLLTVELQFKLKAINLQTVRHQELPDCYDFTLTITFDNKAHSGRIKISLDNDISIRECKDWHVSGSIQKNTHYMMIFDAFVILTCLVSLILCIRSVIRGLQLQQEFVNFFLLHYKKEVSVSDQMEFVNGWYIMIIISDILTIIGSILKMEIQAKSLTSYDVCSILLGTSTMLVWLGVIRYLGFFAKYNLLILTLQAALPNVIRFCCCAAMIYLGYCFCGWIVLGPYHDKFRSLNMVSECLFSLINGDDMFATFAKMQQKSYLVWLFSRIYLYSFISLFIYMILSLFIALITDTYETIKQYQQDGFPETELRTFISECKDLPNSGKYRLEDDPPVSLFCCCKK
# [13] = molecular target: T4, Insulin-degrading enzyme (Homo sapiens, UniProt P14735); assay: Dose Response: Fluorescence polarization-based cell-based high throughput dose response assay for inhibitors of insulin-degrading enzyme (IDE). [Related pubchem assays: 434962 (Primary screen (IDE inhibitors in singlicate)), 449730 (Counterscreen (Cytotoxicity in triplicate)), 435028 (Confirmation (IDE inhibitors in triplicate)), 434984 (Summary …; format: functional
# T4 sequence (P14735 whole entry): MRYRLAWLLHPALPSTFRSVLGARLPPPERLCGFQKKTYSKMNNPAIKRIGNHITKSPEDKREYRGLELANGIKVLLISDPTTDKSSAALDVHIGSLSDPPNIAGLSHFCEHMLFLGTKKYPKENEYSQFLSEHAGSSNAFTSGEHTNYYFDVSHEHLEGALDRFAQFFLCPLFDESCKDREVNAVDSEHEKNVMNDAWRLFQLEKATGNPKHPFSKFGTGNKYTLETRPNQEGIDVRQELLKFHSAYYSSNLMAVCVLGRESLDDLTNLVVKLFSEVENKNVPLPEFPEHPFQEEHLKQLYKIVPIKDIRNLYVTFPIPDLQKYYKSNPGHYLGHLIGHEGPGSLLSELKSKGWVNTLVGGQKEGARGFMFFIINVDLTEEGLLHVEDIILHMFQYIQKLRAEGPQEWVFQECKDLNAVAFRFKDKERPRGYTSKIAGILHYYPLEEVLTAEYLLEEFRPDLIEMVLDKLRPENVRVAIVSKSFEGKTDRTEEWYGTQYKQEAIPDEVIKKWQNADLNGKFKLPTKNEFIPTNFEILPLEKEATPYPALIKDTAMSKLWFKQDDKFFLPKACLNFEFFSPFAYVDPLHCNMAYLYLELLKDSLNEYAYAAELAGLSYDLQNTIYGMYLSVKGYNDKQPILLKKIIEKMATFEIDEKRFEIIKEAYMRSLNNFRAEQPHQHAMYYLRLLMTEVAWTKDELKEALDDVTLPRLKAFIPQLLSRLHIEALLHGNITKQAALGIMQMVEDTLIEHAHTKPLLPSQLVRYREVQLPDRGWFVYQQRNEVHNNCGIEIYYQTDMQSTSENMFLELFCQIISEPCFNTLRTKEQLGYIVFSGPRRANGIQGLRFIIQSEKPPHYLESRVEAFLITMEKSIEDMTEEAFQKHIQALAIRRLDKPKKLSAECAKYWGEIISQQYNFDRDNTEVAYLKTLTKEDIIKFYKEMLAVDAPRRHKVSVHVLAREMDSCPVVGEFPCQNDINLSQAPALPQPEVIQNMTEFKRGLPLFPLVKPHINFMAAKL
# [14] = Counterscreen for IDE inhibitors: Luminescence-based cell-based high throughput dose response assay to identify compounds that are cytotoxic to HEK cells. [Related pubchem assays: 434962 (Primary screen (IDE inhibitors in singlicate)), 449730 (Counterscreen (Cytotoxicity in triplicate)), 435028 (Confirmation (IDE inhibitors in triplicate)) …; format: functional; conditions: HEK293
# [15] = molecular target: T5, RNA-binding protein pos-1 (Caenorhabditis elegans, UniProt G5EF15); assay: disruptors of C. elegans POS-1 RNA interaction – biochemical, fluorescence polarization, dose response (AID 1964);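 note: purified POS-1 fused to maltose binding protein made in E. coli; potency of compounds blocking POS-1 binding to fluorescent RNA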
# T5 sequence (G5EF15 whole entry): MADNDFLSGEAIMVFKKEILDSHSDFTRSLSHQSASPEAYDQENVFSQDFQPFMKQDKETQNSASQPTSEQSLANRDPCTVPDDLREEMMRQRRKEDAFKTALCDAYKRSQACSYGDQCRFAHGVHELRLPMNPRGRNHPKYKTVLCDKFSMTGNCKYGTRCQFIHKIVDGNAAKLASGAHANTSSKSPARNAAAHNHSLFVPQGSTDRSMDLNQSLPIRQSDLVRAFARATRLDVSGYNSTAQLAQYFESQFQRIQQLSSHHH
# [16] = molecular target: Induced myeloid leukemia cell differentiation protein Mcl-1 (Homo sapiens, UniProt Q07820); format: functional
# Sequence of Induced myeloid leukemia cell differentiation protein Mcl-1 (Q07820 whole entry): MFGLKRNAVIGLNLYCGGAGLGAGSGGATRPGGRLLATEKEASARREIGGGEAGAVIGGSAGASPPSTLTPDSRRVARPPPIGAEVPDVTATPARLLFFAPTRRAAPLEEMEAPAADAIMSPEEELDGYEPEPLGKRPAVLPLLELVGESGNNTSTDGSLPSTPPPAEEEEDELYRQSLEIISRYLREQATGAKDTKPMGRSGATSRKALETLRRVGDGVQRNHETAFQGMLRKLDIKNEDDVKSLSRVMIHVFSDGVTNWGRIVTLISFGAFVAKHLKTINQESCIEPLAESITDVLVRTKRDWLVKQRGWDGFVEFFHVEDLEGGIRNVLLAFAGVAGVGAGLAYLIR
# [17] = test system: Vero; assay: cells; format: functional, cell-based; conditions: Chlorocebus sabaeus
# [18] = molecular target: NS3 (Hepatitis C virus, UniProt A3EZJ3); assay: PubChem AID 2173; design: species or system Hepacivirus hominis
# Sequence of NS3 (A3EZJ3 whole entry): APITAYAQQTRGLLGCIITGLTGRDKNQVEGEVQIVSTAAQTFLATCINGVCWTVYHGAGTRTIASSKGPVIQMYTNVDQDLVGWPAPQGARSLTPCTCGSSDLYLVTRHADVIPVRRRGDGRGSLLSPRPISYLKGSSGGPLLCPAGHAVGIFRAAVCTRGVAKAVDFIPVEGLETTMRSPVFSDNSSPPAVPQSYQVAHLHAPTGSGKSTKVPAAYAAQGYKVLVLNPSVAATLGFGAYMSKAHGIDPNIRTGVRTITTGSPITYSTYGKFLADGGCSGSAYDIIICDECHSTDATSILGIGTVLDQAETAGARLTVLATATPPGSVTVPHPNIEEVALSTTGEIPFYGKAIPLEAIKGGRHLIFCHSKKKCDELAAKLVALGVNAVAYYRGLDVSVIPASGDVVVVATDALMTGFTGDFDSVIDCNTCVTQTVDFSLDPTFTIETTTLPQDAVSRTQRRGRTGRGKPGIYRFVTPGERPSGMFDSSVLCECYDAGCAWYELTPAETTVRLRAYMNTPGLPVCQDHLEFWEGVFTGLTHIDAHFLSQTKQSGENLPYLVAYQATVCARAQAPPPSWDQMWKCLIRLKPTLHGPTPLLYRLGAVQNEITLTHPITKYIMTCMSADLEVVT
# [19] = test system: Vero; assay: cells; format: functional; conditions: Chlorocebus sabaeus
# [20] = molecular target: T6, Estrogen receptor beta (Homo sapiens, UniProt Q92731); assay: blockers of SRC-3 recruitment to ERβ – biochemical, ELISA, streptavidin-HRP readout, orthogonal assay, confirmation (AID 1060)
# T6 sequence (Q92731 whole entry): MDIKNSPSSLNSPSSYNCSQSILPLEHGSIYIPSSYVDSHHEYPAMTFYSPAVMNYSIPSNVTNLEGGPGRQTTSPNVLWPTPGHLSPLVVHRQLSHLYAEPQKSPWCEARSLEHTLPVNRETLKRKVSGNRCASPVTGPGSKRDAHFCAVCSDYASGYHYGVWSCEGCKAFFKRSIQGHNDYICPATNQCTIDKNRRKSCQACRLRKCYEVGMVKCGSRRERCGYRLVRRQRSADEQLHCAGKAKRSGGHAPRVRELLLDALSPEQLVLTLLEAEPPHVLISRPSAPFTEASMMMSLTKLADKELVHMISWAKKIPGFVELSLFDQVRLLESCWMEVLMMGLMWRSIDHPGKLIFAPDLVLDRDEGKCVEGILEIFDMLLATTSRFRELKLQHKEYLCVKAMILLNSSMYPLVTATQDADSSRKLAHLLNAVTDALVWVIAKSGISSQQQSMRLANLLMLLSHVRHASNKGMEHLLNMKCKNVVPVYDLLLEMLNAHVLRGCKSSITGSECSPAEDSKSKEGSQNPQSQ
# [21] = molecular target: T2, Estrogen receptor
# [22] = molecular target: T6, Estrogen receptor beta
# [23] = molecular target: T7, NADPH oxidase 1 (Homo sapiens, UniProt Q9Y5S8); format: functional, cell-based;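 note: Cell-based assay with luminescence read-out, IC50 derived from inhibitor dose-response curves; intracellular ROS from endogenous NOX1 in intact HT29 colon cancer cells; potency of inhibitors that lower the ROS luminescence signal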
# T7 sequence (Q9Y5S8 whole entry): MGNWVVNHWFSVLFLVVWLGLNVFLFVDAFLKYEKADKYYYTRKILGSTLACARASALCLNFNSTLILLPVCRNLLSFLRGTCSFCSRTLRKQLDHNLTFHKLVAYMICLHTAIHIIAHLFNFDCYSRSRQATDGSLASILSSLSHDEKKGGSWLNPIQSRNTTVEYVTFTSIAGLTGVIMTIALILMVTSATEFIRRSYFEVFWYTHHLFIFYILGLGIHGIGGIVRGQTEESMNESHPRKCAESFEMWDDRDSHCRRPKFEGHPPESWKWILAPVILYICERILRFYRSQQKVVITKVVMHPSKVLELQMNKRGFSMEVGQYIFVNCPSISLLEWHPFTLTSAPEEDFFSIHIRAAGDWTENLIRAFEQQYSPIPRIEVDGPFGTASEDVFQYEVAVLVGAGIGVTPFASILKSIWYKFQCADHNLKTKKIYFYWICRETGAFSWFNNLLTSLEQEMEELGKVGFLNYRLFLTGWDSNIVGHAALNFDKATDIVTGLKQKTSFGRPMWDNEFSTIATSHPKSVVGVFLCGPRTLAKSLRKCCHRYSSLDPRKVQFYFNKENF
smiles,measurement,setting,value
CC1(OC(=O)CCc2ccccc2)C(=O)C=C2C=C(c3ccc(C#N)cc3)N(Cc3ccco3)C=C2C1=O (stereo unspecified),EC50,[1],> 100 µM (active)
COc1ccc(-n2ncc3c(N4CCCCC4)ncnc32)cc1,AC50,[2],2.87 µM (active)
same,AC50,[3],1.48 µM (active)
same,AC50,[4],> 70 µM (inactive)
same,EC50,[5],0.282 µM (active)
same,IC50,[6],> 39.8 µM (not active)
same,EC50,[7],1.72 µM (inconclusive)
same,AC50,[8],11 µM (active)
COc1cc(NC(=O)c2cc3c(=O)n(C)c4ccccc4c3n2C)cc(OC)c1OC,EC50,[9],12.9 µM (not active)
Cc1ccc(S(=O)(=O)N2CCc3ccccc3C2CN2C(=O)c3ccccc3C2=O)cc1 (stereo unspecified),CC50,[10],45.1 µM (active)
same,EC50,[11],> 29.9 µM (not active)
same,EC50,[12],> 29.9 µM (not active)
CCN(CC)c1ccc(/C=C2\C(=O)NC(=S)N(c3ccc(OC)cc3OC)C2=O)o1,IC50,[13],> 6.21 µM (active)
same,IC50,[14],> 55.6 µM (not active)
same,EC50,[15],> 150 µM (inconclusive)
COC(=O)C1(C(C[N+](=O)[O-])c2ccco2)C(=O)NCC1c1ccccc1 (stereo unspecified),EC50,[11],> 29.9 µM (not active)
same,EC50,[12],7.77 µM (active)
Cc1c(CCC(=O)NCCCn2ccnc2)c(=O)oc2cc3oc4c(c3cc12)CCCC4,IC50,[13],4.31 µM (active)
same,IC50,[14],14.4 µM (not active)
CNc1ccc(Br)cc(C(=O)/C=C/c2cccc(OC)c2)c1=O,IC50,[16],1.92 µM (active)
same,IC50,[17],7.82 µM (active)
same,IC50,[18],8.97 µM (active)
same,CC50,[19],12.7 µM (active)
C1CCC(c2nn3c(-c4[nH]nc5c4CCC5)nnc3s2)CC1,IC50,[20],> 50 µM (not active)
same,IC50,[21],> 50 µM (not active)
same,IC50,[22],10.2 µM (active)
O=C(NCc1ccco1)c1cc2c(s1)CSC2,IC50,[20],0.0368 µM (not active)
same,IC50,[21],9.41 µM (active)
same,IC50,[22],7.85 µM (active)
O=C(Nc1ccc(Cl)cc1)Nc1ccc(Oc2ccccc2)cc1,IC50,[23],> 17 µM (not active)
CC(=O)Nc1ccccc1OC(=O)c1sc2ccccc2c1Cl,IC50,[23],> 17 µM (not active)
